“And” between values parts separate entries of the source, which are not always exact repeats. Identical values can stand only once. Where a SMILES comes first, the peptide text is derived from it. [ ]: non-standard residue; d: D form. Hyp = O=C(O)[C@@H]1C[C@@H](O)CN1
Assays:
[1] = test system: IL-1 beta/IL-1F2; assay: Example 8 main study Luminex, LPS hPBMCs: IL-1 beta/IL-1F2; format: cell-based, human
Protocol: (§1) Human PBMCs were pretreated with YY-101, YDE-011, YDE-043 or reference compound; Xiidra® at various concentration (ranging from […] to 500 nM) for 2 h before stimulation. An equal volume of 0.5% DMSO was used as a vehicle control. Then, the cells were treated with LPS at 5 ug/ml, which was selected based on the pilot study. The supernatants from treated cells were harvested at 24 h and placed in a 96 well for Luminex cytokine & chemokine profiling using a Luminex 200 multiplex assay (Luminex; R&D system, USA).
(§2) The main study arm with triplicate wells per group in a 24-well plate: • 1. Blank • 2. PBMC: 0.5% DMSO • 3. PBMC+LPS (5 ug/ml) • 4. PBMC+YY-101 500 nM • 5. PBMC+YY-101 50 nM • 6. PBMC+YY-101 5 nM • 7. PBMC+YY-101 0.5 nM • 8. PBMC+LPS (5 ug/ml)+Xiidra® 500 nM • 9. PBMC+LPS (5 ug/ml)+Xiidra® 50 nM • 10. PBMC+LPS (5 ug/ml)+Xiidra® 5 nM • 11. PBMC+LPS (5 ug/ml)+Xiidra® 0.5 nM • 12. PBMC+LPS (5 ug/ml)+Xiidra® 0.05 nM • 13. PBMC+LPS (5 ug/ml)+Xiidra® 0.005 nM • 14. PBMC+LPS (5 ug/ml)+YY-101 500 nM • 15. PBMC+LPS (5 ug/ml)+YY-101 50 nM • 16. PBMC+LPS (5 ug/ml)+YY-101 5 nM • 17. PBMC+LPS (5 ug/ml)+YY-101 0.5 nM • 18. PBMC+LPS (5 ug/ml)+YY-101 0.05 nM • 19. PBMC+LPS (5 ug/ml)+YY-101 0.005 nM • 20. PBMC+LPS (5 ug/ml)+YDE-011 500 nM • 21. PBMC+LPS (5 ug/ml)+YDE-011 50 nM • 22. PBMC+LPS (5 ug/ml)+YDE-011 5 nM • 23. PBMC+LPS (5 ug/ml)+YDE-011 0.5 nM • 24. PBMC+LPS (5 ug/ml)+YDE-011 0.05 nM • 25. PBMC+LPS (5 ug/ml)+YDE-011 0.005 nM • 26. PBMC+LPS (5 ug/ml)+YDE-043 500 nM • 27. PBMC+LPS (5 ug/ml)+YDE-043 50 nM • 28. PBMC+LPS (5 ug/ml)+YDE-043 5 nM • 29. PBMC+LPS (5 ug/ml)+YDE-043 0.5 nM • 30. PBMC+LPS (5 ug/ml)+YDE-043 0.05 nM • 31. PBMC+LPS (5 ug/ml)+YDE-043 0.005 nM
(§3) Multiplex assay was used to measure 30 cytokines and chemokines. The 1:200 diluted cell supernatant and serial dilution of the standard were dispensed into a 96 well plate at 50 ul/well. Then, the pre-mixed cocktail of antibody-coated magnetic beads was dispensed at 50 ul/well and incubated at room temperature for 2 h in a horizontal orbital microplate shaker at 800±500 rpm. The beads were washed using a magnetic device to prevent loss. The biotin-antibody was dispensed in 50 ul of each well and incubated at room temperature for 1 h in a shaker at 800±500 rpm. After washing, streptavidin-PE was added at 50 ul/well and incubated at room temperature for 30 min in a shaker under the same conditions. Finally, after washing, wash buffer (100 ul/well) was added to the plate and incubated in a shaker for 2 min. The Luminex™ 200 setting were set according to the manufacturer's protocol. The data was calculated with a standard five-parameter logistic nonlinear regression analysis of the data (xPonent software 4.2, USA). Results were presented as concentration (ng/ml or pg/ml).

[2] = test system: CCL3/MIP-1 alpha; assay: Example 8 main study Luminex, LPS hPBMCs: CCL3/MIP-1 alpha; format: cell-based, human
Protocol: as §1, §2, §3

[3] = PBMC + LPS(5 ug/ml) + test article 0.005 nM, Mean
[4] = PBMC + LPS(5 ug/ml) + test article 0.005 nM, individual replicates
[5] = PBMC + LPS(5 ug/ml) + test article 0.05 nM, Mean
[6] = PBMC + LPS(5 ug/ml) + test article 0.05 nM, individual replicates
[7] = PBMC + LPS(5 ug/ml) + test article 0.5 nM, Mean
[8] = PBMC + LPS(5 ug/ml) + test article 0.5 nM, individual replicates
[9] = PBMC + LPS(5 ug/ml) + test article 5 nM, Mean
[10] = PBMC + LPS(5 ug/ml) + test article 5 nM, individual replicates
[11] = PBMC + LPS(5 ug/ml) + test article 50 nM, Mean
[12] = PBMC + LPS(5 ug/ml) + test article 50 nM, individual replicates
[13] = PBMC + LPS(5 ug/ml) + test article 500 nM, Mean
[14] = PBMC + LPS(5 ug/ml) + test article 500 nM, individual replicates
[15] = PBMC + LPS(5 ug/ml) + test article 0.005 nM, single replicates
[16] = PBMC + LPS(5 ug/ml) + test article 0.05 nM, single replicates
[17] = PBMC + LPS(5 ug/ml) + test article 0.5 nM, single replicates
[18] = PBMC + LPS(5 ug/ml) + test article 5 nM, single replicates
[19] = PBMC + LPS(5 ug/ml) + test article 50 nM, single replicates
[20] = PBMC + LPS(5 ug/ml) + test article 500 nM, single replicates

Structure (SMILES): CC(C)C[C@H](NC(=O)[C@H](CCC(N)=O)NC(=O)CNC(=O)[C@@H]1C[C@@H](O)CN1)C(=O)NCC(=O)O [YDE-043] (H-[Hyp]GQLG-OH; N-terminus and C-terminus assumed)
- LPS-induced IL-1b levels (in words) ([1]; LPS 5 ug/mL 24 hrs): significantly lowered
- IL-1 beta/IL-1F2 Concentration [1, 3]: 5499.4 pg/mL
- IL-1 beta/IL-1F2 MFI [1, 3]: 100.0
- IL-1 beta/IL-1F2 Concentration [1, 4]: 4547.7 pg/mL and 5320.3 pg/mL and 6630.3 pg/mL
- IL-1 beta/IL-1F2 MFI [1, 4]: 84.0 and 97.0 and 119.0
- IL-1 beta/IL-1F2 Concentration [1, 5]: 4458.6 pg/mL
- IL-1 beta/IL-1F2 MFI [1, 5]: 82.5
- IL-1 beta/IL-1F2 Concentration [1, 6]: 4488.3 pg/mL and 4428.9 pg/mL and 4458.6 pg/mL
- IL-1 beta/IL-1F2 MFI [1, 6]: 83.0 and 82.0 and 82.5
- IL-1 beta/IL-1F2 Concentration [1, 7]: 4725.9 pg/mL
- IL-1 beta/IL-1F2 MFI [1, 7]: 87.0
- IL-1 beta/IL-1F2 Concentration [1, 8]: 4963.6 pg/mL and 4785.3 pg/mL and 4428.9 pg/mL
- IL-1 beta/IL-1F2 MFI [1, 8]: 91.0 and 88.0 and 82.0
- IL-1 beta/IL-1F2 Concentration [1, 9]: 5379.8 pg/mL
- IL-1 beta/IL-1F2 MFI [1, 9]: 98.0
- IL-1 beta/IL-1F2 Concentration [1, 10]: 5379.8 pg/mL and 5558.3 pg/mL and 5201.4 pg/mL
- IL-1 beta/IL-1F2 MFI [1, 10]: 98.0 and 101.0 and 95.0
- IL-1 beta/IL-1F2 Concentration [1, 11]: 5280.8 pg/mL
- IL-1 beta/IL-1F2 MFI [1, 11]: 96.3
- IL-1 beta/IL-1F2 Concentration [1, 12]: 5588.1 pg/mL and 5469.1 pg/mL and 4785.3 pg/mL
- IL-1 beta/IL-1F2 MFI [1, 12]: 101.5 and 99.5 and 88.0
- IL-1 beta/IL-1F2 Concentration [1, 13]: 4508.2 pg/mL
- IL-1 beta/IL-1F2 MFI [1, 13]: 83.3
- IL-1 beta/IL-1F2 Concentration [1, 14]: 4428.9 pg/mL and 4191.5 pg/mL and 4904.1 pg/mL
- IL-1 beta/IL-1F2 MFI [1, 14]: 82.0 and 78.0 and 90.0
- CCL3/MIP-1 alpha Concentration [2, 3]: 38526.9 pg/mL
- CCL3/MIP-1 alpha MFI [2, 3]: 57.3
- CCL3/MIP-1 alpha Concentration [2, 15]: 32345.4 pg/mL and 37296.1 pg/mL and 45939.1 pg/mL
- CCL3/MIP-1 alpha MFI [2, 15]: 44.0 and 54.0 and 74.0
- CCL3/MIP-1 alpha Concentration [2, 5]: 29535.1 pg/mL
- CCL3/MIP-1 alpha MFI [2, 5]: 38.8
- CCL3/MIP-1 alpha Concentration [2, 16]: 28213.9 pg/ml and 30195.7 pg/ml (2×)
- CCL3/MIP-1 alpha MFI [2, 16]: 36.5 and 40.0 (2×)
- CCL3/MIP-1 alpha Concentration [2, 7]: 30000.1 pg/mL
- CCL3/MIP-1 alpha MFI [2, 7]: 39.7
- CCL3/MIP-1 alpha Concentration [2, 17]: 29639.8 pg/mL and 31284.6 pg/mL and 29075.9 pg/mL
- CCL3/MIP-1 alpha MFI [2, 17]: 39.0 and 42.0 and 38.0
- CCL3/MIP-1 alpha Concentration [2, 9]: 31809.4 pg/mL
- CCL3/MIP-1 alpha MFI [2, 9]: 43.0
- CCL3/MIP-1 alpha Concentration [2, 18]: 31818.4 pg/mL and 32865.8 pg/mL and 30743.9 pg/mL
- CCL3/MIP-1 alpha MFI [2, 18]: 43.0 and 45.0 and 41.0
- CCL3/MIP-1 alpha Concentration [2, 11]: 31754.6 pg/mL
- CCL3/MIP-1 alpha MFI [2, 11]: 43.0
- CCL3/MIP-1 alpha Concentration [2, 19]: 33380.1 pg/ml (2×) and 28503.4 pg/ml
- CCL3/MIP-1 alpha MFI [2, 19]: 46.0 (2×) and 37.0
- CCL3/MIP-1 alpha Concentration [2, 13]: 28096.2 pg/mL
- CCL3/MIP-1 alpha MFI [2, 13]: 36.3
- CCL3/MIP-1 alpha Concentration [2, 20]: 28503.4 pg/mL and 26426.3 pg/mL and 29358.9 pg/mL
- CCL3/MIP-1 alpha MFI [2, 20]: 37.0 and 33.5 and 38.5
- LPS-induced CCL-3 (in words) ([2]; at as low as 5 μM, LPS 5 ug/mL 24 hrs): significantly reduced

Source: patent publication US20230146455A1, “TREATMENT OF INFLAMMATORY DISEASES WITH PEPTIDES AND PHARMACEUTICAL COMPOSITIONS” (Yuyu Pharma, Inc., priority 2020, published 2023)
